From patent US20090203010A1, “MSMB-gene based diagnosis, staging and prognosis of prostate cancer” (Katholieke Universiteit Leuven, K.U. Leuven R&D, priority 2008, published 2009)

Key:
Format in all cases: cell-based, Human
MSMB gene = experiment: Quantitative RT-PCR of the MSMB transcript level in PC-3 cells
Description: (a) The relative amounts of EZH2 (left panel) and MSMB transcripts (right panel) in the indicated prostate cell lines were determined by quantitative RT-PCR with intron-spanning primers. Human prostate PC-3 cells (adenocarcinoma), LNCaP cells (carcinoma) and DU 145 cells (carcinoma) were cultured as monolayers in 50% Dulbecco's modified Eagle's medium (DMEM) and 50% Ham's F12, RPMI1640 and DMEM, respectively, supplemented with 10% fetal calf serum. PZ-HPV-7 cells, an immortalized cell line derived from normal human prostate cells, were cultured in keratinocyte-serum free medium supplemented with 5 ng/ml human recombinant epidermal growth factor and 0.05 mg/ml bovine pituitary extract. Total RNA was isolated using the Genelute Mammalian Total RNA Miniprep kit (Sigma, St. Louis, Mo., USA). A total of […] RNA was reverse-transcribed with oligo dT primer (Sigma) and the M-MulV reverse transcriptase (Fermentas GMBH, St. Leon-Rot, Germany). cDNA (1.5%) was analyzed by real-time PCR in triplicate using a Platinum SYBR Green qPCR SuperMix-UDG (Invitrogen, Paisly, UK) in a Rotorgene detection system (Corbett Research, Cambridge, UK) and normalized to the housekeeping gene hypoxanthine-guanine-phosphoribosyl-transferase (HPRT). […] The DNA was recovered with the Genelute PCR clean-up kit (Sigma) and analyzed by real-time PCR. […] The enrichment of DNA was calculated using the formula:fold enrichment=^2(CtlgG-CtAb), where Ct is the threshold cycle, IgG is the normal rabbit IgG and Ab is the specific antibody.
FIG. 2 concerns how EZH2 is recruited to the MSMB gene and causes trimethylation of H3K27. […] (b) Immunoblotting (upper panel) and quantitative RT-PCR analysis (lower panel) of PC-3 cell lysates, obtained after transfection with either a control siRNA (Ctr), that is, a scrambled version of a siRNA duplex for the housekeeping gene PPP1R8 ([…] (SEQ ID NO:71), Invitrogen) or an EZH2 siRNA (KD; […] (SEQ ID NO:72), Dharmacon, Chicago, Ill., USA). […] SIPP1 served as a loading control for the immunoblotting and ACTIN was used as control for normalization in the quantitative RT-PCR. […]

[1] = system: CpG island in the promoter region of the MSMB gene; experiment: DNA bisulfite sequencing of the MSMB CpG island in PC-3 cells; conditions: following addition of the DNA methyltransferase inhibitor
Description: (a) PC-3 cells were treated for 48 hours with […] of the DNA methyltransferase inhibitor […]. Subsequently, the steady-state levels of the MSMB and EZH2 transcripts were determined by quantitative RT-PCR analysis with intron-spanning primers specific for the indicated genes. The data were expressed relative to the transcript level in the control condition. HPRT was used as a control for normalization. (b) A schematic representation of the MSMB gene on scale. The four exons are indicated by the black boxes and the two analyzed CpG regions by black stars. TSS, transcriptional start site. Methylated CG dinucleotides are denoted underneath by closed circles and unmethylated CGs by open circles. Genomic DNA of PC-3 cells or LNCaP cells was purified with the GenElute Mammalian Genomic DNA Miniprep kit of Sigma. Two microgram was digested overnight with BglII. The DNA was denatured with 0.3 M NaOH at […] for 30 minutes. Sodium bisulfite (3.3 M) and hydroquinone (0.5 mM) were added to the DNA and the mixture was incubated overnight at 55° C.
The DNA was purified with the PCR purification kit of Sigma, St Louis, Mo., USA. The DNA was desulfonated with […] for 15 minutes at 37° C. and precipitated by adding NH4Ac and ethanol. The pellet was air-dried and dissolved in 10 mM Tris and 1 mM ethylene-diaminete-traacetic acid at pH 8. […]

EZH2 = experiment: Quantitative RT-PCR of the EZH2 transcript level in PC-3 cells
Description: (§1) (a) The relative amounts of EZH2 (left panel) and MSMB transcripts (right panel) in the indicated prostate cell lines were determined by quantitative RT-PCR with intron-spanning primers. Human prostate PC-3 cells (adenocarcinoma), LNCaP cells (carcinoma) and DU 145 cells (carcinoma) were cultured as monolayers in 50% Dulbecco's modified Eagle's medium (DMEM) and 50% Ham's F12, RPMI1640 and DMEM, respectively, supplemented with 10% fetal calf serum. PZ-HPV-7 cells, an immortalized cell line derived from normal human prostate cells, were cultured in keratinocyte-serum free medium supplemented with 5 ng/ml human recombinant epidermal growth factor and 0.05 mg/ml bovine pituitary extract. […] A total of 1-5 mg RNA was reverse-transcribed with oligo dT primer (Sigma) and the M-MulV reverse transcriptase (Fermentas GMBH, St. Leon-Rot, Germany). cDNA (1.5%) was analyzed by real-time PCR in triplicate using a Platinum SYBR Green qPCR SuperMix-UDG (Invitrogen, Paisly, UK) in a Rotorgene detection system (Corbett Research, Cambridge, UK) and normalized to the housekeeping gene hypoxanthine-guanine-phosphoribosyl-transferase (HPRT). […] The DNA was recovered with the Genelute PCR clean-up kit (Sigma) and analyzed by real-time PCR. […]
(§2) FIG. 2 concerns how EZH2 is recruited to the MSMB gene and causes trimethylation of H3K27. […] The enrichment on MSMB is expressed as a %±s.e. of the control value (n=3-4). […]

PPP1R8 = experiment: Quantitative RT-PCR of the housekeeping gene PPP1R8 transcript in PC-3 cells; conditions: siRNA transfection 48 hours
Description: FIG. 2 concerns how EZH2 is recruited to the MSMB gene and causes trimethylation of H3K27. (a) ChIP assays were performed in PC-3 cells using rabbit antibodies against a synthetic peptide of human EZH2 (E. Viré et al. (2006), Nature 439:871-874), trimethylated H3K27 (Upstate), trimethylated H3K9 (Upstate) and control IgGs. […] (b) Immunoblotting (upper panel) and quantitative RT-PCR analysis (lower panel) of PC-3 cell lysates, obtained after transfection with either a control siRNA (Ctr), that is, a scrambled version of a siRNA duplex for the housekeeping gene PPP1R8 ([…] (SEQ ID NO:71), Invitrogen) or an EZH2 siRNA (KD; […] (SEQ ID NO:72), Dharmacon, Chicago, Ill., USA). The PC-3 cells were plated at 1.2×10^6 cells in a 10 cm plate. At 24 hours after plating, the cells were transfected with 300 nM of siRNA duplex using Lipofectamine 2000 (Invitrogen). At 48 hours after transfection, the cells were harvested. SIPP1 served as a loading control for the immunoblotting and ACTIN was used as control for normalization in the quantitative RT-PCR. […] The immunoprecipitated DNA was analyzed by quantitative PCR using primers specific for the MSMB gene (FIG. 1, Panel b). The enrichment on MSMB is expressed as a %±s.e. of the control value (n=3-4). […]

[2] = system: EZH2 association with the MSMB gene; experiment: ChIP with anti-EZH2 antibodies on the MSMB gene in PC-3 cells; conditions: 48 hours, loss only evident in intron 1 (primer sets 3 and 4)
Description: as §1, §2

[3] = system: H3K27 trimethylation of the MSMB gene; experiment: ChIP with anti-H3K27me3 antibodies on the MSMB gene in PC-3 cells; conditions: 48 hours after siRNA transfection
Description: as §1, §2

Nc1ncn([C@@H]2O[C@H](CO)[C@@H](O)[C@H]2O)c(=O)n1 [50-azacytidine] was tested, and the “reactivation of the MSMB gene” value (MSMB gene) was “reactivated”, the “methylation of the CpG island in the promoter region (upstream CpG island) of the MSMB gene” value [1] was “decreased” and the “methylation of the CpG island in the promoter region (upstream CpG island) of the MSMB gene” value ([1]; listed as 5′ azacytidine) was “decreased methylation”.
In the case of CC(/C=C/C(=O)NO)=C\[C@@H](C)C(=O)c1ccc(N(C)C)cc1 [TSA, trichostatin A], the “increase of the MSMB transcript level” value (MSMB gene; TSA 50 ng/ml for nine hours, relative to control condition) is reported as “six” and the “expression level of EZH2” value (EZH2; TSA 50 ng/ml for nine hours) is reported as “did not affect”.
For “AAGACUCUGAAUGCAGUUGCU (SEQ ID NO:72) [EZH2 siRNA]”, the “increase in the expression of MSMB” value (MSMB gene; siRNA transfection 48 hours, relative to control siRNA) was “three”, the “transcript level of control housekeeping gene PPP1R8” value (PPP1R8) was “not affected” and the “EZH2 associated with the MSMB gene (ChIP)” value [2] was “less EZH2 was associated”. The “H3K27 trimethylation of the MSMB gene in intron 1 (ChIP)” value [3] was “loss of H3K27 trimethylation” and the “knockdown of the EZH2 transcript” value (EZH2; siRNA transfection 48 hours) was “about 70%”.
